From US20200377561A1, “ANTIMICROBIAL PEPTIDES AND METHODS OF TREATING GRAM-NEGATIVE PATHOGEN INFECTIONS: POLAR AND NON-POLAR FACE ANALOGS” (THE REGENTS OF THE UNIVERSITY OF COLORADO, a body corporate, priority 2017, published 2020)
Peptide text beside a SMILES is read from it.

What was measured:
[1] = tested on: Pseudomonas aeruginosa ATCC 27853; assay type: cell-based; settings: ATCC 27853
Procedure: (§1) Bacterial strains were acquired from the American Type Culture Collection (ATCC, Virginia, USA) and the National Collection of Type Cultures (NCTC, Public Health England, Salisbury, UK). Minimum Inhibitory Concentration (MIC) of peptides versus gram-negative strains-Acinetobacter baumannii NCTC 13420, and Pseudomonas aeruginosa ATCC 27853 and gram-positive strain Staphylococcus aureus ATCC 29213, were determined by broth microdilution as per the guidelines of the Clinical and Laboratory Standards Institute (“Methods for Dilution Antimicrobial Susceptibility Tests for Bacteria That Grow Aerobically”; Approved Standard-Ninth Edition. CLSI document M07-A9, 2012). Peptides were dissolved in sterile distilled water, which was also used as the drug-free vehicle control when determining peptide MICs. Prior to use in the MIC protocol, bacterial strains were grown on Mueller Hinton agar at 37° C. in an ambient atmosphere. […] A fixed inoculum of the test microorganism (5×10^5 cells/mL) is also added to the plate. The MIC is determined as the lowest concentration of compound that inhibits visible bacterial growth following incubation at 37° C. for 16-20 hours. A difference in MIC of two-fold between experimental replicates is considered to be within the normal variability of this protocol.

[2] = tested on: Acinetobacter baumannii NCTC 13420; assay type: cell-based; settings: NCTC 13420
Procedure: as §1

[3] = Peptide hydrophobicity by RP-HPLC retention; assay type: physicochemical; settings: for tR (relative hydrophobicity by RP-HPLC): Zorbax SB-300 C8, 0.25% B/min from 10% B, 0.3 ml/min, 30° C.; for ΔtR (Lys): retention time difference to the Lys13/Lys16 parent peptide
Description: Retention behavior in RP-HPLC is an excellent method to represent overall peptide hydrophobicity. Retention times of peptides are highly sensitive to the conformational status of the peptides upon interaction with the hydrophobic environment of the column matrix^17,26. The non-polar faces of amphipathic alpha-helical and amphipathic cyclic beta-sheet peptides represent a preferred binding domain for interaction with the hydrophobic matrix of the reversed-phase column^27. In this study, the observed peptide hydrophobicity was determined by RP-HPLC retention time as described below and are relative hydrophobicities because they are dependent on the TFA concentration and organic solvent in the mobile phase, gradient rate, temperature, flow rate and the column used. Analytical Purification by Reversed-phase Chromatography: Analytical RP-HPLC: Column: Zorbax SB-300 C8 (150×2.1 mm ID; 5-μm particle size; 300 Å pore size). Conditions: linear AB gradient (0.25% B/min from 10% B) at a flow-rate of 0.3 ml/min, where Eluent A is 0.2% aq. TFA and Eluent B is 0.18% TFA in acetonitrile; 30° C.

Human erythrocytes = assay: Haemolysis assay using human blood; assay type: cell-based; settings: red cells of human, 1 h
Procedure: To determine the extent of haemolytic activity (the ability to lyse red blood cells) in test peptides, a haemolysis assay was conducted using human blood (BioIVT, West Sussex, UK). Human erythrocytes were exposed to a single fixed concentration or a range of concentrations as to determine the % haemolysis (fixed concentration) or the concentration at which 50% haemolysis occurred (HC50), respectively. Prior to the assay, whole human blood was repeatedly washed in phosphate buffered saline (PBS) under cooled conditions to remove the buffy coat, plasma and cell debris. Washed erythrocytes were diluted as to achieve 1×10^8 cells/mL in PBS. Prepared human erythrocyte samples were combined with peptide at a single fixed concentration of 128 μg/mL, or a range of concentrations (two-fold dilution series) from 1000-31.25 μg/mL. Positive and negative controls containing 2% (v/v) Triton X-100 and PBS alone, respectively, were also prepared. Samples were incubated at 37° C. for 1 hour and then centrifuged to collect intact erythrocytes. Haemoglobin release was determined by recording the optical density of the supernatant at 540 nm. Optical density values were transformed to a percentage of the positive control. Results were recorded as a percentage haemolysis at 128 μg/mL, or by plotting the percentage haemolysis versus concentration and extrapolating the HC50 using linear regression analysis (Table 2 above)
The therapeutic index is a widely-accepted parameter to represent the specificity of antimicrobial peptides for prokaryotic versus eukaryotic cells. It is calculated by the ratio of hemolytic activity and antimicrobial activity (MIC) (Table 2 above); thus, larger values of therapeutic index indicate greater specificity for prokaryotic cells. With the peptides used in this study the inventors used the HC50/MIC ratio value to calculate the therapeutic index.

| Compound | P. aeruginosa ATCC27853 MIC [1] [µg/mL] | Antimicrobial Activity MIC A. baumannii NCTC13420 [2] [µg/mL] | tR (relative hydrophobicity by RP-HPLC) [3] [min] | ΔtR (Lys) [3] [min] | Haemolysis HC50 (Human erythrocytes) [µg/mL] |
| --- | --- | --- | --- | --- | --- |
| CC(=O)N[C@H](C)C(=O)N[C@H](CC(C)C)C(=O)N[C@H](CCCCN)C(=O)N[C@H](CCCCN)C(=O)N[C@H](CC(C)C)C(=O)N[C@H](CC(C)C)C(=O)N[C@H](CCCCN)C(=O)N[C@H](CCCCN)C(=O)N[C@H](CC(C)C)C(=O)N[C@H](CO)C(=O)N[C@H](CO)C(=O)N[C@H](C)C(=O)N[C@H](CCCN)C(=O)N[C@H](CO)C(=O)N[C@H](CO)C(=O)N[C@H](CCCN)C(=O)N[C@H](CC(C)C)C(=O)N[C@H](CO)C(=O)N[C@@H](C(=O)N[C@H](CC(C)C)C(=O)N[C@H](CC(C)C)C(=O)N[C@H](CCCCN)C(=O)N[C@H](CCCCN)C(=O)N[C@H](CC(C)C)C(=O)N[C@H](CCCCN)C(=O)N[C@H](CCCCN)C(N)=O)[C@H](C)O [compound 19] (HELM PEPTIDE1{[ac].[dA].[dL].[dK].[dK].[dL].[dL].[dK].[dK].[dL].[dS].[dS].[dA].[NCCC[C@@H](N[*:1])C(=O)[*:2]].[dS].[dS].[NCCC[C@@H](N[*:1])C(=O)[*:2]].[dL].[dS].[dT].[dL].[dL].[dK].[dK].[dL].[dK].[dK].[am]}$$$$V2.0) | 4 | 2 | 91.57 | 2.94 | >1000 |
| CC(=O)N[C@H](C)C(=O)N[C@H](CC(C)C)C(=O)N[C@H](CCCCN)C(=O)N[C@H](CCCCN)C(=O)N[C@H](CC(C)C)C(=O)N[C@H](CC(C)C)C(=O)N[C@H](CCCCN)C(=O)N[C@H](CCCCN)C(=O)N[C@H](CC(C)C)C(=O)N[C@H](CO)C(=O)N[C@H](CO)C(=O)N[C@H](C)C(=O)N[C@H](CCN)C(=O)N[C@H](CO)C(=O)N[C@H](CO)C(=O)N[C@H](CCN)C(=O)N[C@H](CC(C)C)C(=O)N[C@H](CO)C(=O)N[C@@H](C(=O)N[C@H](CC(C)C)C(=O)N[C@H](CC(C)C)C(=O)N[C@H](CCCCN)C(=O)N[C@H](CCCCN)C(=O)N[C@H](CC(C)C)C(=O)N[C@H](CCCCN)C(=O)N[C@H](CCCCN)C(N)=O)[C@H](C)O [compound 20] (HELM PEPTIDE1{[ac].[dA].[dL].[dK].[dK].[dL].[dL].[dK].[dK].[dL].[dS].[dS].[dA].[NCC[C@@H](N[*:1])C(=O)[*:2]].[dS].[dS].[NCC[C@@H](N[*:1])C(=O)[*:2]].[dL].[dS].[dT].[dL].[dL].[dK].[dK].[dL].[dK].[dK].[am]}$$$$V2.0) | 4 | 2 | 91.57 | 2.94 | >1000 |
| CC(=O)N[C@H](C)C(=O)N[C@H](CC(C)C)C(=O)N[C@H](CCCCN)C(=O)N[C@H](CCCCN)C(=O)N[C@H](CC(C)C)C(=O)N[C@H](CC(C)C)C(=O)N[C@H](CCCCN)C(=O)N[C@H](CCCCN)C(=O)N[C@H](CC(C)C)C(=O)N[C@H](CO)C(=O)N[C@H](CO)C(=O)N[C@H](C)C(=O)N[C@H](CN)C(=O)N[C@H](CO)C(=O)N[C@H](CO)C(=O)N[C@H](CN)C(=O)N[C@H](CC(C)C)C(=O)N[C@H](CO)C(=O)N[C@@H](C(=O)N[C@H](CC(C)C)C(=O)N[C@H](CC(C)C)C(=O)N[C@H](CCCCN)C(=O)N[C@H](CCCCN)C(=O)N[C@H](CC(C)C)C(=O)N[C@H](CCCCN)C(=O)N[C@H](CCCCN)C(N)=O)[C@H](C)O [compound 21] (HELM PEPTIDE1{[ac].[dA].[dL].[dK].[dK].[dL].[dL].[dK].[dK].[dL].[dS].[dS].[dA].[NC[C@@H](N[*:1])C(=O)[*:2]].[dS].[dS].[NC[C@@H](N[*:1])C(=O)[*:2]].[dL].[dS].[dT].[dL].[dL].[dK].[dK].[dL].[dK].[dK].[am]}$$$$V2.0) | 4 | 2 | 94.92 | 0.41 | >1000 |

Second part, led by results:

| P. aeruginosa ATCC27853 MIC [1] [µg/mL] | Antimicrobial Activity MIC A. baumannii NCTC13420 [2] [µg/mL] | tR (relative hydrophobicity by RP-HPLC) [3] [min] | ΔtR (Lys) [3] [min] | Compound | Haemolysis HC50 (Human erythrocytes) [µg/mL] |
| --- | --- | --- | --- | --- | --- |
| 4 | 2 | 83.40 | 3.97 | CC(=O)N[C@H](CCCCN)C(=O)N[C@H](CC(C)C)C(=O)N[C@H](CCCCN)C(=O)N[C@H](CCCCN)C(=O)N[C@H](CC(C)C)C(=O)N[C@H](CC(C)C)C(=O)N[C@H](CCCCN)C(=O)N[C@H](CCCCN)C(=O)N[C@H](CC(C)C)C(=O)N[C@H](CO)C(=O)N[C@H](CO)C(=O)N[C@H](C)C(=O)N[C@H](CCN)C(=O)N[C@H](CO)C(=O)N[C@H](CO)C(=O)N[C@H](CCN)C(=O)N[C@H](CC(C)C)C(=O)N[C@H](CO)C(=O)N[C@@H](C(=O)N[C@H](CC(C)C)C(=O)N[C@H](CC(C)C)C(=O)N[C@H](CCCCN)C(=O)N[C@H](CCCCN)C(=O)N[C@H](CC(C)C)C(=O)N[C@H](CCCCN)C(=O)N[C@H](CCCCN)C(N)=O)[C@H](C)O [compound 15] (HELM PEPTIDE1{[ac].[dK].[dL].[dK].[dK].[dL].[dL].[dK].[dK].[dL].[dS].[dS].[dA].[NCC[C@@H](N[*:1])C(=O)[*:2]].[dS].[dS].[NCC[C@@H](N[*:1])C(=O)[*:2]].[dL].[dS].[dT].[dL].[dL].[dK].[dK].[dL].[dK].[dK].[am]}$$$$V2.0) | >1000 |
| 4 | 2 | 84.06 | 3.31 | CC(=O)N[C@H](CCCCN)C(=O)N[C@H](CC(C)C)C(=O)N[C@H](CCCCN)C(=O)N[C@H](CCCCN)C(=O)N[C@H](CC(C)C)C(=O)N[C@H](CC(C)C)C(=O)N[C@H](CCCCN)C(=O)N[C@H](CCCCN)C(=O)N[C@H](CC(C)C)C(=O)N[C@H](CO)C(=O)N[C@H](CO)C(=O)N[C@H](C)C(=O)N[C@H](CN)C(=O)N[C@H](CO)C(=O)N[C@H](CO)C(=O)N[C@H](CN)C(=O)N[C@H](CC(C)C)C(=O)N[C@H](CO)C(=O)N[C@@H](C(=O)N[C@H](CC(C)C)C(=O)N[C@H](CC(C)C)C(=O)N[C@H](CCCCN)C(=O)N[C@H](CCCCN)C(=O)N[C@H](CC(C)C)C(=O)N[C@H](CCCCN)C(=O)N[C@H](CCCCN)C(N)=O)[C@H](C)O [compound 16] (HELM PEPTIDE1{[ac].[dK].[dL].[dK].[dK].[dL].[dL].[dK].[dK].[dL].[dS].[dS].[dA].[NC[C@@H](N[*:1])C(=O)[*:2]].[dS].[dS].[NC[C@@H](N[*:1])C(=O)[*:2]].[dL].[dS].[dT].[dL].[dL].[dK].[dK].[dL].[dK].[dK].[am]}$$$$V2.0) | >1000 |
